Structures are written as SMILES.

Interleukin-1 receptor-associated kinase 1, sequence (P51617 whole entry): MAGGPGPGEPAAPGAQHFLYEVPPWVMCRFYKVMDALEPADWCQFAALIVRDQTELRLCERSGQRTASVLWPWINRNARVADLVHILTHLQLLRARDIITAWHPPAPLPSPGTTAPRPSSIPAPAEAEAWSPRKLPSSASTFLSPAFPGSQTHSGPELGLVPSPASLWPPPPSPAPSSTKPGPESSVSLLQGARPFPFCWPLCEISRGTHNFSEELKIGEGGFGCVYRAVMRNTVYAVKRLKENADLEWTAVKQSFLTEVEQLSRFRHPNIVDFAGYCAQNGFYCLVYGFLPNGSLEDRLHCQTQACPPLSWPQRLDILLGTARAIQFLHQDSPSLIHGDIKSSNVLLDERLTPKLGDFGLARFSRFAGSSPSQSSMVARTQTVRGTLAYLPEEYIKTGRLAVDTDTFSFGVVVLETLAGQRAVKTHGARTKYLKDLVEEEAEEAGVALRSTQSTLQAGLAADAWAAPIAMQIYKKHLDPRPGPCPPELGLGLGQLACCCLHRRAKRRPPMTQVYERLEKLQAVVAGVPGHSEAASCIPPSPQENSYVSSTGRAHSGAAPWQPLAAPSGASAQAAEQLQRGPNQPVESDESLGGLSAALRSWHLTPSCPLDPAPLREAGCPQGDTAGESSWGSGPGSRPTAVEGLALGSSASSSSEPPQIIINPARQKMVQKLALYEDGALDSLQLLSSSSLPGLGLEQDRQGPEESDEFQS

One assay has as its target T1, Interleukin-1 receptor-associated kinase 4 (Homo sapiens) (UniProt Q9NWZ3).
T1 sequence (whole entry): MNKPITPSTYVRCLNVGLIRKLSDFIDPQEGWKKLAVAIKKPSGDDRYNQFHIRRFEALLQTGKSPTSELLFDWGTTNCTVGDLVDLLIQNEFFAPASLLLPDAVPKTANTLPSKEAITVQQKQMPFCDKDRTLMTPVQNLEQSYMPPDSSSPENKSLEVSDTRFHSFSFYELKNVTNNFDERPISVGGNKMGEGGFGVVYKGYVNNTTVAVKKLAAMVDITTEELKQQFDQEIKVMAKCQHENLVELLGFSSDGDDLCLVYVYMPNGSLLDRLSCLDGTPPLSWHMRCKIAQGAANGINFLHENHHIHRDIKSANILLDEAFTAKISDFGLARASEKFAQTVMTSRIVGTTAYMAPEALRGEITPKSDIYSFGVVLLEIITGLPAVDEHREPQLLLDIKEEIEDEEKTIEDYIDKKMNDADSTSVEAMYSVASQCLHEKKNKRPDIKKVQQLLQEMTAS
In words: Inhibition of IRAK4 at 30 uM.
Conditions: not given
`O=[N+]([O-])c1cccc(CNc2nc3ccccc3[nH]2)c1` displayed an inhibition of 8%. Still for that read-out and setting: the figure for `O=C(Nc1nc2ccccc2s1)c1cccc([N+](=O)[O-])c1` is 11%; for `O=C(Nc1nc2ccc[nH]c-2n1)c1cccc([N+](=O)[O-])c1` it is 39%. With `CCCCn1c(NC(=O)c2ccc([N+](=O)[O-])cc2)nc2ccccc21`, the inhibition was found to be 8%. Still for that read-out and setting: the same measure for `O=C(Nc1nc2cc([N+](=O)[O-])ccc2[nH]1)c1cccc([N+](=O)[O-])c1`: 29%; for `O=C(Nc1nc2c(F)c(F)ccc2[nH]1)c1cccc([N+](=O)[O-])c1`: 24%.

`O=[N+]([O-])c1cccc(S(=O)(=O)Nc2nc3ccccc3[nH]2)c1` gave an inhibition of 45%.

The compound `O=C(O)Cn1c(NC(=O)c2cccc([N+](=O)[O-])c2)nc2ccccc21` registered an inhibition of 38%. The same measure, in the same setting: the figure for `O=C(Nc1nc2c([N+](=O)[O-])cccc2[nH]1)c1cccc([N+](=O)[O-])c1` is 25%; for `O=C(Nc1nc2cc(Cl)c(Cl)cc2[nH]1)c1cccc([N+](=O)[O-])c1` it is 10%; for `O=C(Nc1cccc([N+](=O)[O-])c1)Nc1nc2ccccc2[nH]1` it is 15%.

For the compound `O=C(Nc1nc2ccccc2[nH]1)c1ccccc1`, the inhibition turned out to be 11%.

The next assay addresses Interleukin-1 receptor-associated kinase 1 (Homo sapiens, UniProt P51617). Description: Inhibition of IRAK1.
Conditions: not given
The compound `CCOC(=O)Cn1c(NC(=O)c2cccc([N+](=O)[O-])c2)nc2ccccc21` had an IC50 of 0.75 µM.

With `O=C(Nc1nc2ccccc2n1CCN1CCOCC1)c1cccc([N+](=O)[O-])c1`, the IC50 amounted to 0.3 µM.

The target of another assay is T2, Interleukin-1 receptor-associated kinase 4 (Homo sapiens, UniProt Q9NWZ3).
T2 sequence (Q9NWZ3 whole entry): T1 sequence (whole entry)
Description: Inhibition of IRAK4.
Conditions: not given
Compound `Cc1ccc2nc(NC(=O)c3cccc([N+](=O)[O-])c3)[nH]c2c1` had an IC50 of 0.8 µM. Still for that read-out and setting: the figure for `O=C(Nc1nc2ccccc2[nH]1)c1ccc(F)c([N+](=O)[O-])c1` is 6.5 µM. Still for that read-out and setting: the figure for `CCCCCn1c(NC(=O)c2cccc([N+](=O)[O-])c2)nc2ccccc21` is 20 µM; for `CN(C(=O)c1cccc([N+](=O)[O-])c1)c1nc2ccccc2n1C1CCOC1=O` (stereo unspecified) it is more than 30 µM; for `CCOC(=O)Cn1c(NC(=O)c2cccc([N+](=O)[O-])c2)nc2ccccc21` it is 0.4 µM.

`CN(C)CCCn1c(NC(=O)c2cccc([N+](=O)[O-])c2)nc2ccccc21` gave an IC50 of 4 µM. Still for that read-out and setting: the figure for `CC(C)n1c(NC(=O)c2cccc([N+](=O)[O-])c2)nc2ccccc21` is 1 µM. Same read-out and setting: the same measure for `O=C(Nc1nc2ccccc2n1C1CCOC1=O)c1cccc([N+](=O)[O-])c1` (stereo unspecified): 0.55 µM; for `CCCS(=O)(=O)c1ccc2[nH]c(NC(=O)c3cccc([N+](=O)[O-])c3)nc2c1`: 4 µM.

Turning to `Cc1cc2nc(NC(=O)c3cccc([N+](=O)[O-])c3)[nH]c2cc1C`, the IC50 was found to be 8 µM. The same measure, in the same setting: the same measure for `O=C(Nc1nc2ccccc2n1CCN1CCOCC1)c1cccc([N+](=O)[O-])c1`: 0.2 µM. The same measure, in the same setting: the figure for `CCN(CC)CCn1c(NC(=O)c2cccc([N+](=O)[O-])c2)nc2ccccc21` is 3 µM. Same read-out and setting: the figure for `O=C(O)CCn1c(NC(=O)c2cccc([N+](=O)[O-])c2)nc2ccccc21` is 4 µM; for `O=C(Nc1nc2ccccc2n1CCC1CCC1)c1cccc([N+](=O)[O-])c1` it is 2 µM; for `N#Cc1cccc(C(=O)Nc2nc3ccccc3[nH]2)c1` it is 13.6 µM. For the compound `CCOCCn1c(NC(=O)c2cccc([N+](=O)[O-])c2)nc2ccccc21`, the IC50 turned out to be 2 µM. The same measure, in the same setting: the same measure for `C=CCN(C(=O)c1cccc([N+](=O)[O-])c1)c1nc2ccccc2n1CC=C`: more than 30 µM. The compound `CCCCn1c(NC(=O)c2ccc(Cl)c(Cl)c2)nc2ccccc21` displayed an IC50 of 3 µM.

Regarding `CCn1c(NC(=O)c2cccc([N+](=O)[O-])c2)nc2ccccc21`, 2 µM corresponded to half-maximal inhibition (IC50). Still for that read-out and setting: the same measure for `O=C(Nc1nc2cc[nH]cc-2n1)c1cccc([N+](=O)[O-])c1`: 30 µM; for `O=C(Nc1nc2ccccc2n1CCO)c1cccc([N+](=O)[O-])c1`: 0.4 µM; for `C=CCn1c(NC(=O)c2cccc([N+](=O)[O-])c2)nc2ccccc21`: 1 µM.

Compound `COCCn1c(NC(=O)c2cccc([N+](=O)[O-])c2)nc2ccccc21` gave an IC50 of 1 µM.

In turn, `CCCCn1c(NC(=O)c2cccc(Cl)c2)nc2ccccc21` showed an IC50 of 30 µM.

As to `CCCCn1c(NC(=O)c2ccc(OC)cc2)nc2ccccc21`, the midpoint of inhibition, the IC50, lay at 6.5 µM. With `COc1ccc2nc(NC(=O)c3cccc([N+](=O)[O-])c3)[nH]c2c1`, the midpoint of inhibition, the IC50, lay at 1.5 µM. `Cc1ccc(C(=O)Nc2nc3ccccc3[nH]2)cc1[N+](=O)[O-]` returned an IC50 of 12 µM. Still for that read-out and setting: the figure for `O=C(Nc1nc2ccccc2[nH]1)c1cccc([N+](=O)[O-])c1` is 4 µM; for `CCCCn1c(NC(=O)c2cccc([N+](=O)[O-])c2)nc2ccccc21` it is 2 µM. On the same count and under the same terms, the same measure for `O=C(Nc1nc2ccccc2n1CC1CCCO1)c1cccc([N+](=O)[O-])c1` (stereo unspecified): 0.5 µM; for `CCOC(=O)CCn1c(NC(=O)c2cccc([N+](=O)[O-])c2)nc2ccccc21`: 1 µM. Same read-out and setting: the figure for `O=C(Nc1nc2cc(F)c(F)cc2[nH]1)c1cccc([N+](=O)[O-])c1` is 30 µM; for `O=C(Nc1nc2ccc(Cl)cc2[nH]1)c1cccc([N+](=O)[O-])c1` it is 6 µM; for `O=C(Nc1nc2ccc(F)cc2[nH]1)c1cccc([N+](=O)[O-])c1` it is 4.5 µM.

Take `COC(=O)c1ccc2[nH]c(NC(=O)c3cccc([N+](=O)[O-])c3)nc2c1`: the IC50 was 25 µM.

Another assay deals with HeLa. In words: Antiproliferative activity against human HeLa cell line after 72 hrs. In kind it is functional. The conditions noted are these: read-out: ED50 (the source's name).
For the compound `CCOC(=O)Cn1c(NC(=O)c2cccc([N+](=O)[O-])c2)nc2ccccc21`, the EC50 was more than 30 µM. Still for that read-out and setting: the same measure for `O=C(Nc1nc2ccccc2n1CCN1CCOCC1)c1cccc([N+](=O)[O-])c1`: more than 30 µM.

One may read the inhibition as the share of the control response that was lost under treatment. For orientation: IC50 means the concentration that inhibits the measured activity by half. A low value points to inhibition by little substance.

Source of the values: ChEMBL document CHEMBL1147720, “Discovery and initial SAR of inhibitors of interleukin-1 receptor-associated kinase-4” (Bioorg Med Chem Lett, 2006).
